Data on one molecule can be found in patent US20140037742A1, “ALGINATE MICROPARTICLES AND METHODS OF USING THE SAME” (priority 2012, published 2014).

This test has as its system Staphylococcus epidermidis. Description: Antimicrobial testing, zones of inhibition around saturated discs on agar plates. Type of test: cell-based. The conditions noted are these: positive control disc, all test plates.

Each structure is given as a SMILES string.

Description: Each disc was saturated with different test materials and zones of inhibition were measured after plates were incubated for 24 and 48 hours.
The synthesized microparticles were also tested for their antimicrobial activity against Staphylococcus epidermidis, a substitute for the pathogenic Staphylococcus aureus.

`[H]/N=C(/N)N[C@H]1[C@H](O)[C@@H](O)[C@H](O[C@@H]2O[C@@H](C)[C@](O)(C=O)[C@H]2O[C@@H]2O[C@@H](CO)[C@H](O)[C@@H](O)[C@@H]2NC)[C@@H](N/C(N)=N\[H])[C@@H]1O` [Streptomycin]: the zone of inhibition result is recorded as “large, consistent zone of inhibition”.
